Measurements: patent US9790207B2, “Pan-genomic inhibitors of NS5A protein encoded by HCV, pharmaceutical compositions, intermediates for inhibitor synthesis, and their synthesis and application methods” (priority 2015, dated 2017)
Where a name gives a salt, the structure may show the parent alone. Read-outs that look alike come from different tables or passages of the source.

What was measured:
[1] = Cytotoxicity, cell viability by ATPLite Kit; type: cell-based, human; details: human, 10% FBS; for inhibition at 96 h: Huh7 cells (human hepatoma cell line), maximal inhibition, read-out: Cytotox gT1b 10% FBS max. inh.
Experimental: The cytotoxicity of the test compounds was studied in parallel using the same cell line, Huh7. Cell viability was determined using the ATPLite Kit (Perkin-Elmer, Boston, USA), according to manufacturer's instructions. 96-well black/transparent bottom plates were seeded with cells at a density of 7.5×10^3 cells per well in 50 μl medium. After 18 hours, compound treatment was initiated by adding 50 μl of compound dilution into the plates. Each compound dilution was tested in triplicates. The cells and inhibitors were then incubated for 96 hours at 37° C./5% CO2. The plates were washed twice with PBS (0.2 ml/well), and then lysed by adding lysis buffer, 0.05 ml/well (all reagents were included with the ATPLite Kit). After rocking for 5 min on a rocking platform, substrate buffer was added (0.05 ml/well). After additional 5-min incubation, the plates were kept in dark for 10 min, and the luminescence was read using TopCount NXT (Packard, Perkin Elmer). CC50 values for all test compounds were determined using XLfit 4.1 software (Table 2).

HCV gT1b replicon = assay: HCV replicon assay, gT1b; type: cell-based, Hepatitis C virus (HCV); details: Hepatitis C virus, GT1B, Huh-7, Huh7 replicon cells, mean value
Experimental: The HCV replicon assay was used to determine the antiviral activity of compounds of general formula 2 (test compounds). The test cell line used in the HCV Replicon Assay was the human hepatoma cell line Huh7 incorporating the HCV replicons synthesized by an outside vendor.
96-well plates were seeded with cells at a density of 7.5×10^3 cells per well in 50 μl of assay media. The compound stock solution was made up freshly in an assay medium (DMEM 1×, Cellgro; cat. #10-013-CV) as a 2× stock. A total of 11 serial 3-fold dilutions of test compounds were prepared from the 2× stock in the assay media ranging from 20 nM-0.2 pM final concentrations. At least 4 hours after seeding the cells, compound treatment was initiated by adding 50 μl of compound dilution to the plates. The final concentrations of compound therefore ranged from 10 nM to 0.1 pM when diluted 1:1 in culture media. The final DMSO concentration was 0.5%. Cells and inhibitors were incubated for 3 days at 37° C./5% CO2. The media was removed from the plates by gentle tapping. The cells were fixed with 100 μl 1:1 acetone:methanol for 1 minute, washed three times with PBS buffer, and then blocked with 150 μl/well 10% Fetal Bovine Serum (FBS) in PBS for 1 hour at room temperature. The cells were then washed three times with PBS buffer and incubated with 100 μl/well anti-hepatitis C core mAb (Affinity BioReagents; cat. # MA1-080, 1 mg/ml stock diluted 1:4,000 in 10% FBS-PBS) for 2 hours at 37° C. Then, the cells were washed three times with PBS and incubated with 100 μl/well HRP-Goat Anti-Mouse antibody (diluted 1:3.500 in 10% FBS-PBS) for 1 hour at 37° C. The cells were then washed three times with PBS and developed with an OPD solution, 100 μl/well (1 OPD tablet+12 ml citrate/phosphate buffer+5 μl 30% H2O2 per plate), for 30 minutes in the dark at room temperature. The reaction was stopped with 2N H2SO4 (100 μl/well), and the absorbance was measured at A490 X on a Victor^3 V 1420 multilabel counter (Perkin Elmer).

[2] = 10% FBS, read-out: gT1b 10% FBS, EC50 (pM) mean
[3] = 40% NHS, read-out: gT1b 40% NHS, EC50 (pM) mean

Row | Structure (SMILES) | inhibition at 96 h [1] | EC50 (HCV gT1b replicon; [2]) | EC50 (HCV gT1b replicon; [3]) | CC50 at 96 h ([1]; Huh7 human hepatoma cells, read-out: Cytotox gT1b 10% FBS CC50)
1 | COC(=O)N[C@H](C(=O)N1CCC[C@H]1c1ncc(C#CC#Cc2ccc(-c3cnc([C@@H]4CCCN4C(=O)[C@@H](NC(=O)OC)C(C)C)[nH]3)cc2-c2ccccc2)[nH]1)C(C)C [2(1)•2HCl, [(S)-1-((S)-2-{5-[4-(5-{2-[(S)-1-((S)-2-Methoxycarbonylamino-3-methyl-butyryl)-pyrrolidin-2-yl]-3H-imidazol-4-yl}-biphenyl-2-yl)-buta-1,3-diynyl]-1H-imidazol-2-yl}-pyrrolidine-1-carbonyl)-2-methyl-propyl]-carbamic acid methyl ester dihydrochloride] | 42% | 1.79 pM | 12.4 pM | 
2 | COC(=O)N[C@H](C(=O)N1CCC[C@H]1c1ncc(C#CC#Cc2ccc(-c3cnc([C@@H]4CCCN4C(=O)[C@@H](NC(=O)OC)C(C)C)[nH]3)cc2-c2cccc(C(C)(C)C)c2)[nH]1)C(C)C [2(2)•2HCl, [(S)-1-((S)-2-{5-[4-(3′-tert-Butyl-5-{2-[(S)-1-((S)-2-methoxycarbonylamino-3-methyl-butyryl)-pyrrolidin-2-yl]-3H-imidazol-4-yl}-biphenyl-2-yl)-buta-1,3-diynyl]-1H-imidazol-2-yl}-pyrrolidine-1-carbonyl)-2-methyl-propyl]-carbamic acid methyl ester dihydrochloride] | 38% | 1.67 pM | 6.6 pM | 
3 | COC(=O)N[C@H](C(=O)N1CCC[C@H]1c1ncc(C#CC#Cc2ccc(-c3cnc([C@@H]4CCCN4C(=O)[C@@H](NC(=O)OC)C(C)C)[nH]3)cc2-c2cccc(-c3ccccc3)c2)[nH]1)C(C)C [2(3)•2HCl, [(S)-1-((S)-2-{5-[4-(5-{2-[(S)-1-((S)-2-Methoxycarbonylamino-3-methyl-butyryl)-pyrrolidin-2-yl]-3H-imidazol-4-yl}-[1,1′; 3′,1″]terphenyl-2-yl)-buta-1,3-diynyl]-1H-imidazol-2-yl}-pyrrolidine-1-carbonyl)-2-methyl-propyl]-carbamic acid methyl ester dihydrochloride] | 29% | 1.24 pM | 17.1 pM | 
4 | COC(=O)N[C@H](C(=O)N1CCC[C@H]1c1ncc(C#CC#Cc2ccc(-c3cnc([C@@H]4CCCN4C(=O)[C@@H](NC(=O)OC)C(C)C)[nH]3)cc2-c2ccc3ccccc3c2)[nH]1)C(C)C [2(4)•2HCl, [(S)-1-((S)-2-{5-[4-(4-{2-[(S)-1-((S)-2-Methoxycarbonylamino-3-methyl-butyryl)-pyrrolidin-2-yl]-3H-imidazol-4-yl}-2-naphthalen-2-yl-phenyl)-buta-1,3-diynyl]-1H-imidazol-2-yl}-pyrrolidine-1-carbonyl)-2-methyl-propyl]-carbamic acid methyl ester dihydrochloride] | 31% | 1.56 pM | 16.3 pM | 
5 | COC(=O)N[C@H](C(=O)N1CCC[C@H]1c1ncc(-c2ccc(C#CC#Cc3cnc([C@@H]4CCCN4C(=O)[C@H](NC(=O)OC)c4ccccc4)[nH]3)c(-c3cccc(C(C)(C)C)c3)c2)[nH]1)C(C)C [2(10)•2HCl, [(S)-1-((S)-2-{5-[3′-tert-Butyl-6-(4-{2-[(S)-1-((R)-2-methoxycarbonylamino-2-phenyl-acetyl)-pyrrolidin-2-yl]-3H-imidazol-4-yl}-buta-1,3-diynyl)-biphenyl-3-yl]-1H-imidazol-2-yl}-pyrrolidine-1-carbonyl)-2-methyl-propyl]-carbamic acid methyl ester dihydrochloride] | 37% | 1.22 pM | 8.13 pM | 
6 | COC(=O)N[C@H](C(=O)N1CCC[C@H]1c1ncc(-c2ccc(C#CC#Cc3cnc([C@@H]4CCCN4C(=O)[C@H](NC(=O)OC)c4ccccc4)[nH]3)c(-c3ccc(C(C)(C)C)cc3)c2)[nH]1)C(C)C [2(11)•2HCl, [(S)-1-((S)-2-{5-[4′-tert-Butyl-6-(4-{2-[(S)-1-((R)-2-methoxycarbonylamino-2-phenyl-acetyl)-pyrrolidin-2-yl]-3H-imidazol-4-yl}-buta-1,3-diynyl)-biphenyl-3-yl]-1H-imidazol-2-yl}-pyrrolidine-1-carbonyl)-2-methyl-propyl]-carbamic acid methyl ester dihydrochloride] | 29% | 1.24 pM | 10.7 pM | 
7 | COC(=O)N[C@H](C(=O)N1CCC[C@H]1c1ncc(-c2ccc(C#CC#Cc3cnc([C@@H]4CCCN4C(=O)[C@H](NC(=O)OC)c4ccccc4)[nH]3)c(-c3cccc(-c4ccccc4)c3)c2)[nH]1)C(C)C [2(12)•2HCl, [(S)-1-((S)-2-{5-[6-(4-{2-[(S)-1-((R)-2-Methoxycarbonylamino-2-phenyl-acetyl)-pyrrolidin-2-yl]-3H-imidazol-4-yl}-buta-1,3-diynyl)-[1,1′;3′,1″]terphenyl-3-yl]-1H-imidazol-2-yl}-pyrrolidine-1-carbonyl)-2-methyl-propyl]-carbamic acid methyl ester dihydrochloride] | 29% | 1.79 pM | 13.4 pM | 
8 | COC(=O)N[C@H](C(=O)N1CCC[C@H]1c1ncc(-c2ccc(C#CC#Cc3cnc([C@@H]4CCCN4C(=O)[C@H](NC(=O)OC)c4ccccc4)[nH]3)c(-c3ccc(-c4ccccc4)cc3)c2)[nH]1)C(C)C [2(13)•2HCl, [(S)-1-((S)-2-{5-[6-(4-{2-[(S)-1-((R)-2-Methoxycarbonylamino-2-phenyl-acetyl)-pyrrolidin-2-yl]-3H-imidazol-4-yl}-buta-1,3-diynyl)-[1,1′;4′,1″]terphenyl-3-yl]-1H-imidazol-2-yl}-pyrrolidine-1-carbonyl)-2-methyl-propyl]-carbamic acid methyl ester dihydrochloride] | 24% | 1.61 pM | 14.4 pM | 
9 | COC(=O)N[C@H](C(=O)N1CCC[C@H]1c1ncc(-c2ccc(C#CC#Cc3cnc([C@@H]4CCCN4C(=O)[C@H](NC(=O)OC)c4ccccc4)[nH]3)c(-c3ccc(N4CCN(C)CC4)cc3)c2)[nH]1)C(C)C [2(15)•2HCl, [(S)-1-((S)-2-{5-[4′-(4-Methyl-piperazin-1-yl)-6-(4-{2-[(S)-1-((R)-2-methoxycarbonylamino-2-phenyl-acetyl)-pyrrolidin-2-yl]-3H-imidazol-4-yl}-buta-1,3-diynyl)-biphenyl-3-yl]-1H-imidazol-2-yl}-pyrrolidine-1-carbonyl)-2-methyl-propyl]-carbamic acid methyl ester tetrahydrochloride] | 82% | 3.65 pM | 23.9 pM | 16.2 µM
10 | COC(=O)N[C@H](C(=O)N1CCC[C@H]1c1ncc(-c2ccc(C#CC#Cc3cnc([C@@H]4CCCN4C(=O)[C@H](NC(=O)OC)c4ccccc4)[nH]3)c(-c3cccnc3)c2)[nH]1)C(C)C [2(16)•2HCl, [(S)-1-((S)-2-{5-[4-(4-{2-[(S)-1-((R)-2-Methoxycarbonylamino-2-phenyl-acetyl)-pyrrolidin-2-yl]-3H-imidazol-4-yl}-buta-1,3-diynyl)-3-pyridin-3-yl-phenyl]-1H-imidazol-2-yl}-pyrrolidine-1-carbonyl)-2-methyl-propyl]-carbamic acid methyl ester trihydrochloride] | 32% | 4.7 pM | 36.2 pM | 
11 | COC(=O)N[C@H](C(=O)N1CCC[C@H]1c1ncc(-c2ccc(C#CC#Cc3cnc([C@@H]4CCCN4C(=O)[C@H](NC(=O)OC)c4ccccc4)[nH]3)c(Sc3ccccc3)c2)[nH]1)C(C)C [2(20)•2HCl, [(S)-1-((S)-2-{5-[4-(4-{2-[(S)-1-((R)-2-Methoxycarbonylamino-2-phenyl-acetyl)-pyrrolidin-2-yl]-3H-imidazol-4-yl}-buta-1,3-diynyl)-3-phenylsulfanyl-phenyl]-1H-imidazol-2-yl}-pyrrolidine-1-carbonyl)-2-methyl-propyl]-carbamic acid methyl ester dihydrochloride] | 43% | 1.7 pM | 9.02 pM | 
